Experimental data reported in patent publication US8222263B2, “Inhibitors of hedgehog pathway” (Exelixis Patent Company LLC, priority 2007, dated 2012).

test system: Gli-luciferase (firefly) reporter in SHh Light II cell line (NIH-3T3), Hedgehog pathway; test: Light II Assay (SHh-Smo cell-based Gli-luciferase reporter assay); settings: rSHh stimulated cells, 24 hours, % inhibition of luciferase signal
Method: The SHh-Smo assay is a cell-based reporter assay in the SHh Light II cell line (NIH-3T3), available through the American Tissue Culture Center (ATCC). […] In addition, this cell line contains a constitutively expressed renilla luciferase reporter (via CMV promoter) which can be used as a readout to detect any non-specific compound effects, including cytotoxicity.
Test compounds were serially diluted in DMSO and 1.5 μL aliquots were transferred to 384-well non-binding plates. Compounds were diluted with 85 μL of assay media (DMEM+0.5% FBS, 5 mM Hepes, 1% NEAA, 1% PenStrep, 0.8% Geneticin). Cell plates were prepared by adding 50 μL of assay media (240 cells/μL) to white TC coated 384-well plates (final cell concentration is 12,000 cells/well). Cell plates were incubated overnight at 37° C.
Media was removed from the cell plates and 30 μL of compound in assay media+rSHh (1.5 μg/well) was added to the cell plates. Plates were incubated at 37° C. for 24 hours. Following overnight incubation, media was aspirated from the cell plates and 20 μL of luciferase media (Bright-glo, Promega) was added to the cell. Cells were incubated for 5 minutes and measured on an Envision™ plate reader (Perkn Elmer) using the luciferase detection protocol. IC50 values were calculated as a percentage inhibition of luciferase signal from rSHh stimulated cells compared to unstimulated cells.

Point of comparison: `Cc1ccc(-c2ccn[nH]2)cc1NC(=O)c1ccc(Nc2nc(-c3ccccc3)c3ccccc3n2)cc1` [N-[2-methyl-5-(1H-pyrazol-5-yl)phenyl]-4-[(4-phenylquinazolin-2-yl)amino]benzamide], IC50 6.3 nM. Against it:
- Cc1ccc(CN2CCOCC2)cc1NC(=O)c1ccc(Nc2nc(-c3ccccc3)c3ccccc3n2)c(F)c1 [3-fluoro-N-[2-methyl-5-(morpholin-4-ylmethyl)phenyl]-4-[(4-phenylquinazolin-2-yl)amino]benzamide] — within 1.5-fold, 6.2 nM
- Cc1cccc(C)c1NC(=O)c1ccc(Nc2nc(C3CC3)c3ccccc3n2)cc1 [4-[(4-cyclopropylquinazolin-2-yl)amino]-N-(2,6-dimethylphenyl)benzamide] — 2.2-fold lower, 2.8 nM
- O=C(c1ccccc1)N1CCC(Nc2nc(-c3ccccc3)c3ccccc3n2)CC1 [4-phenyl-N-[1-(phenylcarbonyl)piperidin-4-yl]quinazolin-2-amine] — 11-fold higher, 68.4 nM
- Cc1ccc(CN2CCOCC2)cc1NC(=O)c1ccc(Nc2nc(C(C)C)c3ccccc3n2)cc1 [4-{[4-(1-methylethyl)quinazolin-2-yl]amino}-N-[2-methyl-5-(morpholin-4-ylmethyl)phenyl]benzamide] — 2.8-fold higher, 17.8 nM
- Cc1cccc(C)c1NC(=O)c1cc(Nc2nc(-c3ccccc3)c3ccccc3n2)c(Cl)s1 [5-chloro-N-(2,6-dimethylphenyl)-4-[(4-phenylquinazolin-2-yl)amino]thiophene-2-carboxamide] — 26-fold higher, 166 nM
- Cc1cccc(C)c1NC(=O)c1ccc(Nc2nc3c(c(-c4ccccc4)n2)CCC3)cc1 [N-(2,6-dimethylphenyl)-4-[(4-phenyl-6,7-dihydro-5H-cyclopenta[d]pyrimidin-2-yl)amino]benzamide] — 4.1-fold higher, 25.8 nM
- Cc1cccc(C)c1NC(=O)c1ccc(Nc2nc(-c3ccccc3)c3cccnc3n2)cc1 [N-(2,6-dimethylphenyl)-4-[(4-phenylpyrido[2,3-d]pyrimidin-2-yl)amino]benzamide] — 1.8-fold lower, 3.6 nM
- Cc1cccc(C)c1NC(=O)c1ccc(Nc2nc3c(c(-c4ccccc4)n2)CN(Cc2ccccc2)CC3)cc1 [N-(2,6-dimethylphenyl)-4-{[4-phenyl-6-(phenylmethyl)-5,6,7,8-tetrahydropyrido[4,3-d]pyrimidin-2-yl]amino}benzamide] — 25-fold higher, 156 nM
- CN1CCc2ccc(NC(=O)c3ccc(Nc4nc(-c5ccccc5)c5ccccc5n4)cc3)cc2C1 [N-(2-methyl-1,2,3,4-tetrahydroisoquinolin-7-yl)-4-[(4-phenylquinazolin-2-yl)amino]benzamide] — within 1.5-fold, 5.8 nM
- Cc1ccc(CN(C)Cc2ccccc2)cc1NC(=O)c1ccc(Nc2nc(C)c3ccccc3n2)cc1 [N-(2-methyl-5-{[methyl(phenylmethyl)amino]methyl}phenyl)-4-[(4-methylquinazolin-2-yl)amino]benzamide] — 1.9-fold lower, 3.4 nM
- Cc1ccc(C(=O)NCCN(C)C)cc1NC(=O)c1ccc(Nc2nc(-c3ccccc3)c3ccccc3n2)cc1 [N-[2-(dimethylamino)ethyl]-4-methyl-3-[({4-[(4-phenylquinazolin-2-yl)amino]phenyl}carbonyl)amino]benzamide] — 2.6-fold higher, 16.4 nM
- Cc1ccc(OCCN2CCOCC2)cc1NC(=O)c1ccc(Nc2nc(-c3ccccc3)c3ccccc3n2)cc1 [N-{2-methyl-5-[(2-morpholin-4-ylethyl)oxy]phenyl}-4-[(4-phenylquinazolin-2-yl)amino]benzamide] — within 1.5-fold, 6.2 nM
- CN(C)Cc1cccc(NC(=O)c2ccc(Nc3nc(-c4ccccc4)c4ccccc4n3)cc2)c1 [N-{3-[(dimethylamino)methyl]phenyl}-4-[(4-phenylquinazolin-2-yl)amino]benzamide] — within 1.5-fold, 6.1 nM
- CCN1CCN(C(=O)c2ccc(C)c(NC(=O)c3ccc(Nc4nc(-c5ccccc5)c5ccccc5n4)cc3)c2)CC1 [N-{5-[(4-ethylpiperazin-1-yl)carbonyl]-2-methylphenyl}-4-[(4-phenylquinazolin-2-yl)amino]benzamide] — 3.8-fold higher, 23.9 nM
- Cc1ccc(CN(C)C)cc1NC(=O)c1ccc(Nc2nc(-c3cccs3)c3ccccc3n2)cc1 [N-{5-[(dimethylamino)methyl]-2-methylphenyl}-4-{[4-(2-thienyl)quinazolin-2-yl]amino}benzamide] — 3.3-fold higher, 21 nM
